The values that follow come from ChEMBL document CHEMBL3352758, “Structural Analysis of the Binding of Type I, I1/2, and II Inhibitors to Eph Tyrosine Kinases” (ACS Med Chem Lett, 2015).

The target in the experiment is T1, Ephrin type-B receptor 4 (Homo sapiens, UniProt P54760).
T1 sequence (P54760 whole entry): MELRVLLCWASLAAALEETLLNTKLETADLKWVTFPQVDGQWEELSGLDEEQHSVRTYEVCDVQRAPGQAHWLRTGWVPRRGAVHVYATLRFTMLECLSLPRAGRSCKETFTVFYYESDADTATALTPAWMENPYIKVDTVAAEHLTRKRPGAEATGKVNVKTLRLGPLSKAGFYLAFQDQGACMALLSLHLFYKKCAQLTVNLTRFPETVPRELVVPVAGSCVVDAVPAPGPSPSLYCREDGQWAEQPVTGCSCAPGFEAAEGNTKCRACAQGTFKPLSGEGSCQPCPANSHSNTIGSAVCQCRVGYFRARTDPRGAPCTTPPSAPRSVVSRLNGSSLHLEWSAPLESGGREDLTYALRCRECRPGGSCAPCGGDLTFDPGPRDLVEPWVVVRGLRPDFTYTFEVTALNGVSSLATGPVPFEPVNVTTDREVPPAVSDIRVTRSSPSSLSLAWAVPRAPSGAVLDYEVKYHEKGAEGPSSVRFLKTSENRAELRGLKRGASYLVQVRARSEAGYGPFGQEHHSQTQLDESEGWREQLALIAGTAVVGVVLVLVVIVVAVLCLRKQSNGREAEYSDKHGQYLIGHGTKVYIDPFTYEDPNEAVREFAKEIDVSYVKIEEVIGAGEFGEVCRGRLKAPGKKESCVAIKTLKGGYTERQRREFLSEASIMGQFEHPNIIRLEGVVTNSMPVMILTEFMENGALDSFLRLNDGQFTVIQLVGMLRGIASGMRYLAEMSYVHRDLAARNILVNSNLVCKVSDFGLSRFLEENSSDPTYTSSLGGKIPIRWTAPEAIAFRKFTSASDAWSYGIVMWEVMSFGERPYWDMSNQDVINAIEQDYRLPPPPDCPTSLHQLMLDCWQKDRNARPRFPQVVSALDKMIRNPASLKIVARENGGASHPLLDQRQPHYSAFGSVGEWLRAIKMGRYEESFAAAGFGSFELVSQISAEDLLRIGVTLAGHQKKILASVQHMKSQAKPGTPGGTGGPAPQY
The experiment can be described thus: Inhibition of EphB4 (unknown origin) by FRET-based enzymatic assay in presence of 30 uM ATP.

Each structure is given as a SMILES string.

A word on the IC50: it is the concentration at which inhibition is half-maximal. On to `Cc1ccc(-c2csc(NC(=O)CCCC(=O)O)c2C(N)=O)cc1C`, for which the 50% inhibitory concentration (IC50) (read-out: IC50) was 8 µM.
On to `Cc1ccc(-n2nc(C(C)(C)C)cc2NC(=O)Nc2ccc(OCCN3CCOCC3)c3ccccc23)cc1` [DORAMAPIMOD], for which the IC50 result is on record as “Not Active”.
